Data taken from patent EP0427799B1, “METHOD AND COMPOUNDS FOR AICA RIBOSIDE DELIVERY AND FOR LOWERING BLOOD GLUCOSE” (GENSIA, INC., priority 1989, dated 1990).
Values joined by “and” are separate entries in the source; they are usually repeats but may differ in a detail not shown here. Identical values can stand only once.

Experiments:
[1] = tested on: skin flap; experiment: Protection against ischemic injury in skin flap model; assay type: in vivo, rats; conditions: skin flap viability 3 days post-surgery; pretreatment 45 minutes before surgery (SOD at time of surgery)
Protocol: Compounds were tested for their activity in protecting against ischemic injury in a skin flap model in rats.
Animals were pretreated with AICA riboside or AICA riboside plus adenosine deaminase (ADA) 45 minutes before surgery or, as a positive control, superoxide dismutase (SOD) was used at the time of surgery. A skin flap was raised on the abdomen of a rat for 6 hours and then sewn down. The percent viability of the flaps was evaluated at 3 days post-surgery.
This effect was not as pronounced in the presence of ADA, supporting the importance of adenosine's protective role in this setting.

[2] = tested on: Blood Glucose; experiment: Effect on blood glucose in rabbits (hexokinase procedure); assay type: in vivo, Rabbits (New Zealand White); conditions: for Blood Glucose Change(+/-): 2H post-dose vs pre-dose; for Blood Glucose Change(+/-) / Blood Glucose 2H Post-Dose: individual rabbits
Protocol: Rabbits (New Zealand White) were given IV doses of AICA riboside, either 2 ml/kg (100 mg/kg) or 4 ml/kg (200 mg/kg). Blood was obtained by venipuncture before AICA riboside administration and two hours post-administration. Blood glucose concentrations before administration and two hours post-administration were measured by the hexokinase procedure (see Example K). The percent change (+/-) from pre-dose values are reported. Both dosage levels decreased blood glucose levels as compared with pre-AICA riboside administration levels.
(§1) AICA riboside (100, 250 or 500 mg/kg) or saline (as a control) was administered intraperitoneally to rats. Sixty minutes after AICA riboside administration, the rats were sacrificed by cervical dislocation. Blood glucose was determined spectrophotometrically measuring O.D. at 340 nm by the hexokinase method using the glucose SR Reagent (Medical Analysis Systems, Inc.) Blood lactate and pyruvate were determined spectrophotometrically measuring O.D. at 340 nm using lactate dehydrogenase in the presence of excess NAD or NADH, respectively.

[3] = tested on: serum glucose; experiment: Plasma glucose levels in humans after intravenous infusion; assay type: in vivo
Protocol: Healthy male volunteers were given a 30-minute intravenous infusion of AICA riboside at doses of 25 mg/kg, 50 mg/kg or 100 mg/kg.
Plasma glucose levels were monitored over a four hour period during and following the 30 minute infusion. Plasma glucose was measured by clinical chemistry autoanalyzer. The onset of the serum glucose lowering effect was evident by the end of the AICA riboside infusion period and plasma glucose reached a nadir approximately 30 minutes after the AICA riboside infusion was stopped. Recovery to euglycemic levels was complete by about three hours.

[4] = tested on: plasma glucose; experiment: Plasma glucose in streptozocin-hyperglycemic rats; assay type: in vivo; conditions: rats made hyperglycemic with 50 mg/Kg streptozocin I.V.; doses as low as 100 mg/Kg I.P.
Protocol: This hypoglycemic effect may contribute to the anti-ischemic properties of the molecule. Ribose is known to lower blood glucose in several animal species, including man, in relatively high doses (on the order of about 1000 mg/kg) by an unknown mechanism, possibly by inhibition of phosphoglucomutase. Accordingly, in theory, AICA riboside could cause hypoglycemia at extremely high doses ([…]) due to its ability to deliver ribose phosphate to cells. Other means of increasing intracellular ribose such as treatment with ribose itself or other nucleosides and prodrugs and analogs of them which can be metabolized to yield ribose-1-phosphate (which is converted ribose-5-phosphate) or ribose-5-phosphate may also lower blood sugar. […] At higher doses of AICA riboside, hypoglycemic seizures and death were induced in rabbits and mice. We have found rats to also be sensitive to the hypoglycemic effects of AICA riboside. Initial studies were performed using non-fasted rats (Sprague Dawley) and mice (Swiss-Webster). […] In non-fasted mice the decrease of glucose levels at this dose was greater, On the order of 30-50%. In both cases the hypoglycemia was statistically significant at the p <.01 level. […] In fasted mice, AICA riboside is potent in lowering blood glucose. (See e.g., Figure 6). In fasted mice AICA riboside may cause seizures at doses of 500 mg/Kg and above. […]

[5] = tested on: Blood glucose; experiment: Hypoglycemic effects of oral AICA riboside prodrugs; assay type: in vivo, mice (Swiss Webster); conditions: equimolar amounts
Protocol: Male mice (Swiss Webster) were given equimolar amounts of either saline, AICA riboside, or compounds C1 or 10 of Table I orally. Blood glucose levels were measured one hour after administration by the glucose strip method (Chemstrip B.G.).

[6] = tested on: infarct size; experiment: Rat models of focal brain ischemia (partial and total reperfusion); assay type: in vivo; conditions: 800 mg/kg IP
Text: The claimed prodrugs, by delivering AICA riboside should provide similar efficacy. […] Both intracerebroventricular (ICV) and IP administration of AICA riboside was effective in the gerbil model In addition to the gerbil, two different rat models of focal ischemia were also used to evaluate AICA-riboside. One model employed partial reperfusion and the second total reperfusion.

[7] = tested on: triglycerides; experiment: Plasma triglyceride levels in diabetic rats, chronic treatment; assay type: in vivo; conditions: streptozotocin-induced diabetes in rats
Protocol: Rats were made diabetic by treatment with streptozocin (50 mg/kg IV) and then treated with either saline or AICA riboside (500 mg/kg, twice a day) for 22 days. Plasma triglyceride levels were analyzed 18 hours after the last injection of AICA riboside using the Sigma Procedure #334 Assay Kit (coupled assay employing lipase, glycerokinase, pyruvate kinase and lactate dehydrogenase) which measures decreases in OD₃₄₀ over time (NADH disappearance).

[8] = tested on: insulin; experiment: Blood insulin levels in rats; assay type: in vivo; conditions: high doses, early time points
Text: This leads to investigation of the mechanism of AICA riboside induced hypoglycemia. […] This adenosine induced hyperglycemia is reversed by adenosine receptor antagonists (theophylline and sulphophenyltheophylline). Additionally, the AICA riboside-induced hypoglycemia is not blocked by theophylline. It is therefore concluded that the AICA riboside effect on plasma glucose is not mediated by adenosine. […] (See Figure 13).

[9] = tested on: lactate and pyruvate; experiment: Blood lactate and pyruvate in rats; assay type: in vivo
Protocol: as §1

[10] = 2ml (100 mg/kg) IV, rabbit 10 not included
[11] = healthy male volunteers, 30-minute intravenous infusion

Compound: NC(=O)c1ncn([C@@H]2O[C@H](CO)[C@@H](O)[C@H]2O)c1N [AICA riboside, 1-β-D-ribofuranosyl-5-aminoimidazole-4-carboxamide]
- % Viable [1]: 75%
- Blood Glucose Change(+/-) ([2]; 2ml (100 mg/kg) IV): -25 mg% and +102* mg% and -24 mg% (2×) and -28 mg% and +10 mg% and -22 mg% and -23 mg% and -11 mg% and -53 mg%
- Blood Glucose 2H Post-Dose ([2]; 2ml (100 mg/kg) IV): 93 mg% and 215* mg% and 87 mg% and 89 mg% (2×) and 122 mg% and 96 mg% and 98 mg% and 106 mg% and 99 mg%
- Blood Glucose 2H Post-Dose, Mean [2, 10]: 98 mg%
- Blood Glucose Change(+/-), Mean [2, 10]: -22 mg%
- Blood Glucose Change(+/-) ([2]; 4ml (200mg)/kg IV): -14 mg% and -76 mg% and -42 mg% and -69 mg% and -59 mg%
- Blood Glucose 2H Post-Dose ([2]; 4ml (200mg)/kg IV): 100 mg% and 32** mg% and 79 mg% and 56 mg% and 62 mg%
- Blood Glucose 2H Post-Dose, Mean ([2]; 4ml (200mg)/kg IV): 66 mg%
- Blood Glucose Change(+/-), Mean ([2]; 4ml (200mg)/kg IV): -52 mg%
- time of plasma glucose nadir after infusion was stopped [3, 11]: approximately 30 minutes
- time to recovery to euglycemic levels [3, 11]: about three
- effect on serum glucose ([3]; humans, 25 mg/kg intravenously over 30 minutes): significant reductions in serum glucose
- effect on plasma glucose [4]: marked decreases in plasma glucose that approached euglycemic levels
- hypoglycemia after oral administration [5]: did not produce detectable hypoglycemia
- infarct size [6]: highly significant reduction in infarct size
- serum triglycerides [7]: lowers serum triglycerides
- blood insulin levels [8]: suppress blood insulin levels
- lactate to pyruvate ratio [9]: not changed
- liver glycogen, serum lactate and pyruvate [9]: elevation of liver glycogen and of serum lactate and pyruvate
